# Measured values taken from the supplement of paper PMC5770543.
# ± gives the standard deviation.
# Tests used:
# [1] = tested on: Plasmodium falciparum 3D7; experiment: EC50 growth inhibition (60 h, SYBR Green); settings: stage: ring-stage start
# [2] = tested on: Toxoplasma gondii RH tachyzoites; experiment: % growth inhibition vs DMSO (48 h luciferase); higher = more inhibition; settings: 10 µM
# [3] = tested on: Plasmodium falciparum 3D7; experiment: % inhibition of schizont-to-ring transition vs DMSO; higher = more inhibition
# Procedure, shortened: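 Schizont-to-ring transition inhibition is the formation of new rings relative to vehicle controls. Tightly synchronised P. falciparum schizonts at about 40–42 hours post-invasion (1% parasitemia, 2.5% hematocrit, AlbuMAX-supplemented RPMI) were treated with compound at 1, 3 or 10 µM, alongside vehicle and positive controls. After glutaraldehyde fixation, Triton permeabilisation and Hoechst 33342 staining, at least 100,000 events were counted by flow cytometry, and values are the mean of three experiments.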
# [4] = tested on: Toxoplasma gondii RH tachyzoites; experiment: plaque count per well; higher = less inhibition; extreme values may be limits of the assay; settings: 10 µM; 8-10 days
# Protocol: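 T. gondii RH tachyzoites expressing firefly luciferase were grown in HFF monolayers for 48 h with compound. % growth inhibition at 10 µM and EC50 (2-fold dilutions from 10 µM) were read by luminescence relative to 1% DMSO; EC50 listed as 10 (not determined, <80% inhibition) is left out. Plaque assays: 50 tachyzoites per well with 10 µM compound for 8-10 days, giving plaque count and area by crystal violet/ImageJ. Egress: median time to egress after 1 µM A23187 ionophore following 24 h of 10 µM compound (DMSO ~1.8 min; >10 = no egress within 10 min).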
# 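Throughout, for % growth inhibition vs DMSO (48 h luciferase): tested in triplicate wells of 96-well plates on confluent HFF monolayers, with 1% DMSO wells as negative control in four replicates.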
SMILES,EC50 growth inhibition [1] [µM],% growth inhibition [2] [%],% inhibition of schizont-to-ring transition ([3]; 1 µM) [%],% inhibition of schizont-to-ring transition ([3]; 3 µM) [%],% inhibition of schizont-to-ring transition ([3]; 10 µM) [%],plaque count per well [4]
c1ccc(-c2ccc(-c3nc4ccccc4[nH]3)cc2)cc1,0.928,12.3 ± 15,8.54,24.5,41,0
CCCc1cc(O)c2c3c(c(=O)oc2c1)CN(C)CC3,0.364,< 0,25.2,60.2,68,33
CC1CCN(Cc2ccc(NC(=O)c3cc4ccc5cccnc5c4[nH]3)cc2)CC1,0.241,< 0,42.3,50,55.4,18
CCOC(=O)C1(Cc2ccccc2)CCN(Cc2cccc(OC)c2O)CC1,1.33,1.84 ± 3.2,25.8,34,55.9,0
CC1CCN(Cc2c(O)ccc3cc(-c4nc5ccccc5s4)c(=O)oc23)CC1,,18.7 ± 17,6.51,20.3,38.2,0
C[n+]1c2ccccc2nc2ccc(NCCO)cc21,0.0964,< 0,33.2,48.3,65.4,0
COc1ccc(C(=O)Nc2nonc2-c2ccc(OC)c(OC)c2)cc1Cl,0.42,1.09 ± 1.9,35.7,67.3,69.4,20
CC(C)=CCN1CCC(C(=O)Nc2ccc(-c3nc4ccccc4[nH]3)cc2)CC1,0.464,19.7 ± 20,18,45.8,59.4,0
CCc1c(C)c(=N)c2ccccc2n1C,3.38,< 0,5.96,11.3,33.6,25
COc1ccc2c(c1OC)C(=O)N1c3ccccc3N=C(c3ccc(C)cc3)CC21 (stereo unspecified),6.08,< 0,20.9,71.5,80.7,32
COc1ccccc1CNC(=O)CCn1c(=O)[nH]c2ccsc2c1=O,6.07,< 0,11.4,30.6,49.9,22
Cc1ccc(-c2cc3nc4c(c(O)n3n2)CCCC4)cc1,4.27,< 0,17.7,36.1,49.3,0
O=C(NC1CCN(Cc2ccccc2)CC1)c1cc2nc(-c3ccc(Cl)s3)cc(C(F)(F)F)n2n1,,< 0,13.4,13.8,27.3,22
COc1ccc(Br)cc1C1Nc2ccc3ccccc3c2C2=C1C(=O)CC(c1ccccc1)C2 (stereo unspecified),0.387,12.1 ± 11,< 0,4.06,29.3,0
O=C(CSc1ccc2nnc(-c3cccc(F)c3)n2n1)Nc1ccc2c(c1)OCO2,6.57,15.9 ± 9.8,32,49.9,72.7,25
COc1nc(Nc2ccc(C(C)C)cc2)nc(OC)n1,2.54,< 0,20.3,32.6,54.9,30
Cc1ccc(Nc2nc(NCCO)c3ccccc3n2)cc1C,0.194,< 0,54.1,66.8,69.1,0

SMILES,EC50 growth inhibition [1] [µM],% growth inhibition [2] [%],% inhibition of schizont-to-ring transition ([3]; 1 µM) [%],% inhibition of schizont-to-ring transition ([3]; 3 µM) [%],% inhibition of schizont-to-ring transition ([3]; 10 µM) [%],plaque count per well [4]
COc1ccc(-c2nonc2NC(=O)c2cccc(C)c2)cc1OC,0.628,3.28 ± 4.1,32.8,59,67.1,28
CC(C)CNC(=O)c1c(N)n(CCc2ccccc2F)c2nc3ccccc3nc12,,< 0,< 0,< 0,15,28
CC(C)c1ccc(CNCC(O)c2ccccc2)cc1 (stereo unspecified),2.65,10.5 ± 1.3,7.33,20.6,59.6,0
CCCCc1c(CCC)c(=N)c2ccccc2n1C,3.93,< 0,7.81,11.2,39.6,23
Cc1ccc(-c2cc(C(=O)Nc3ccc(S(=O)(=O)N4CCCCC4)cc3)[nH]n2)c(O)c1,9.18,< 0,28.1,58.9,67.5,18
OC(CNC1CCCCC1)Cn1c2ccccc2c2ccccc21 (stereo unspecified),0.985,< 0,48.9,69,75.3,21
O=C(Nc1ccsc1C(=O)NC1CCCCC1)c1ccc(F)cc1,,< 0,4.95,8.54,14.8,20
COc1ccc(C)c2sc(N(Cc3cccnc3)C(=O)c3ccc(C#N)cc3)nc12,,< 0,21.7,24.1,58.5,23
COc1cccc(Nc2nc(N)c3ccccc3n2)c1,1.32,< 0,< 0,12.3,41.7,0
Cc1ccc(N2C3c4ccccc4N(S(=O)(=O)c4ccc(C)cc4)C2c2ccccc2N3S(=O)(=O)c2ccc(C)cc2)cc1,,19.1 ± 3,< 0,5.25,18.3,0
Cc1ccc(C(=O)c2oc3ccc4c(C)cc(=O)oc4c3c2C)cc1,,< 0,6.95,10.6,20.4,24
COc1cc(C(=O)Nc2nc3c(cc4c5c(cccc53)CC4)s2)cc(OC)c1OC,,4.43 ± 6.7,3.9,8.08,22.5,38
CN(C)c1ccc(N=Cc2ccc(N3CCOCC3)cc2)cc1,,< 0,17.3,20,24,22
COc1ccc(CCN2C(=O)c3[nH]nc(-c4cc(Cl)c(C)cc4O)c3C2c2ccccc2F)cc1 (stereo unspecified),,< 0,20,20.6,46.1,0
COc1ccc(C2N(C)c3ccccc3N2C)cc1,,15.2 ± 13,< 0,< 0,11.8,28
O=C1c2ccccc2-c2nnc(-c3ccc(Br)cc3)cc21,,< 0,5.35,17.7,32.6,24
